Values of other authors as cited in patent US12569183B2 (University Of Maryland, Baltimore, priority 2018, dated 2026).

Columns and labels:
[1] = clinical trials; median baseline QTc 405 msec
[2] = administered twice daily, steady state on day 3
[3] = rapid IV infusions; hypotension, dyspnea, QT prolongation

## CC(C)NCC(O)c1ccc(NS(C)(=O)=O)cc1 (stereo not drawn) [sotalol]
[1]
  slope of the concentration QTc relationship: 0.0158 ms/ng/mL
[2]
  number of doses until steady-state exposures: 4-5 doses
[3]
  adverse events: only mild to moderate adverse events
